Laboratory results reported in patent publication US7208314B2, “Compositions and methods for drug delivery using pH sensitive molecules” (priority 2002, dated 2007).
Like-named read-outs stand apart in the source and are kept apart here. Peptide text beside a SMILES is read from it. * marks the point of attachment. X1 = C/C(C(=O)O)=C(\C)C(=O)*

Key:
[1] = tested on: 3T3 mouse embryonic fibroblast cells; experiment: In vitro transfection with DNA-PLL-KL3 and dimethylmaleamic KL3, luciferase expression; assay type: cell-based
Protocol: To a complex of plasmid DNA pCIluc (10 μg/mL, 0.075 mM in phosphate, 2.6 μg/μL pCIluc; prepared according to Danko, I., Williams, P., Herweijer, H. Zhang, G., Latendresse, J. S., Bock, I., Wolff, J. A. Hum. Mol. Genetics 1997, 6, 1435.) and poly-L-lysine (40 μg/mL) in 0.5 mL of 5 mM HEPES pH 7.5 was added succinylated poly-L-lysine (34,000 MW, Aldrich Chemical), 2,3-dimethylmaleamic melittin and 2,3-dimethylmaleamic KL3. The DNA-poly-L-lysine-2,3-dimethylmaleamic peptide complexes were then added (200 μL) to wells containing 3T3 mouse embryonic fibroblast cells in 290 mM glucose and 5 mM HEPES buffer pH 7.5. After 1.5 h, the glucose media was replaced with Dubelco's modified Eagle Media and the cells were allowed to incubate for 48 h. The cells were then harvested and then assayed for luciferase expression as previously reported (Wolff, J. A., Malone, R. W., Williams, P., Chong, W., Acsadi, G., Jani, A. and Felgner, P. L. Direct gene transfer into mouse muscle in vivo. Science, 1465–1468, 1990.). A Lumat LB 9507 (EG&G Berthold, Bad-Wildbad, Germany) luminometer was used. The amount of transfection was reported in relative light units and is the average transfection for two separate wells of cells.

[2] = tested on: 3T3 mouse embryonic fibroblast cells; experiment: In vitro transfection with DNA-PLL complexes with dimethylmaleamic KL3 and dimethylmaleamic KL3-PLL; assay type: cell-based; settings: pCIluc DNA/poly-L-lysine complex plus 10 mg modified peptide; opti-MEM 4 h; 48 h
Protocol: To a complex of plasmid DNA pCIluc (10 μg/mL, prepared according to Danko, I., Williams, P., Herweijer, H. Zhang, G., Latendresse, J. S., Bock, I., Wolff, J. A. Hum. Mol. Genetics 1997, 6, 1435.) and poly-L-lysine (40 μg/mL) in 0.5 mL water was added 10 mg of 2,3-dimethylmaleamic -KL3-PLL or 2,3-dimethylmaleamic -KL3. The DNA-poly-L-lysine-2,3-dimethylmaleamic peptide complexes were then added (200 μL) to a well containing 3T3 mouse embryonic fibroblast cells in opti-MEM. After 4 h, the media was replaced with 90% Dubelco's modified Eagle Media and 10% fetal bovine serum the cells were then allowed to incubate for 48 h. The cells were then harvested and then assayed for luciferase expression as previously reported (Wolff, J. A., Malone, R. W., Williams, P., Chong, W., Acsadi, G., Jani, A. and Felgner, P. L. Direct gene transfer into mouse muscle in vivo. Science, 1465–1468, 1990.). A Lumat LB 9507 (EG&G Berthold, Bad-Wildbad, Germany) luminometer was used. The amount of transfection was reported in relative light units and is the average transfection for two separate wells of cells.

[3] = Kinetics of conversion of dimethylmaleamic modified amines to amines at pH 5 (trinitrobenzenesulfonate); assay type: physicochemical; settings: 40 mM sodium acetate buffer pH 5 and 1 mM cetyltrimetylammonium bromide
Protocol: Dimethyl maleamic modified poly-L-lysine (10 mg/mL) was incubated in 10 mM sodium acetate buffer pH 5. At various times, aliquots (10 μg) were removed and added to 0.5 mL of 100 mM borax solution containing 0.4 mM trinitrobenzenesulfonate. A half an hour later, the absorbance of the solution at 420 nm was measured. To determine the concentration of amines at each time point, the extinction coefficient was determine for the product of trinitrobenzenesulfonate and poly-L-lysine. Using this extinction coefficient we were able to calculate the amount of amines and maleamic groups at each time point. A plot of ln (At/A0) as a function of time was a straight line whose slope is the negative of the rate constant for the conversion of maleamic acid to amine and anhydride, where At is the concentration of maleamic acid at a time t and A0 is the initial concentration of maleamic acid. For two separate experiments we calculated rate constants of […] which correspond to half lives of roughly 10 and 4 minutes respectively.
Dimethyl maleamic modified KL3 (0.1 mg/mL) was incubated in 40 mM sodium acetate buffer pH 5 and 1 mM cetyltrimetylammonium bromide. At various times, aliquots (10 μg) were removed and added to 0.05 mL of 1 M borax solution containing 4 mM trinitrobenzenesulfonate. A half an hour later, the absorbance of the solution at 420 nm was measured. […]

[4] = Hemolysis assay: melittin or KL3 blocked by anionic polymer or dimethylmaleic anhydride; assay type: cell-based; settings: pH 7.5, read-out: Percent hemolysis
Protocol: The membrane-disruptive activity of the peptide melittin and subsequent blocking of activity by anionic polymers was measured using a red blood cell (RBC) hemolysis assay. RBCs were harvested by centrifuging whole blood for 4 min. They were washed three times with 100 mM dibasic sodium phosphate at the desired pH, and resuspended in the same buffer to yield the initial volume. They were diluted 10 times in the same buffer, and 200 uL of this suspension was used for each tube. This yields 10 ? 8 RBCs per tube. Each tube contained 800 uL of buffer, 200 uL of the RBC suspension, and the peptide with or without polymer. Each sample was then repeated to verify reproducibility. The tubes were incubated for 30 minutes in a 37 C water bath. They were spun for 5 min at full speed in the microcentifuge. Lysis was determined by measuring the absorbance of the supernatant at 541 nm, reflecting the amount of hemoglobin that had been released into the supernatant. Percent hemolysis was calculated assuming 100% lysis to be measured by the hemoglobin released by the red blood cells in water; controls of RBCs in buffer with no peptide were also run.

Structure (SMILES): C/C(C(=O)O)=C(\C)C(=O)NCCCC[C@H](NC(=O)/C(C)=C(/C)C(=O)O)C(=O)N[C@@H](CC(C)C)C(=O)N[C@@H](CC(C)C)C(=O)N[C@@H](CCCCNC(=O)/C(C)=C(/C)C(=O)O)C(=O)N[C@@H](CC(C)C)C(=O)N[C@@H](CC(C)C)C(=O)N[C@@H](CC(C)C)C(=O)N[C@@H](CCCCNC(=O)/C(C)=C(/C)C(=O)O)C(=O)N[C@@H](CC(C)C)C(=O)N[C@@H](Cc1c[nH]c2ccccc12)C(=O)N[C@@H](CC(C)C)C(=O)N[C@@H](CCCCNC(=O)/C(C)=C(/C)C(=O)O)C(=O)N[C@@H](CC(C)C)C(=O)N[C@@H](CC(C)C)C(=O)N[C@@H](CCCCNC(=O)/C(C)=C(/C)C(=O)O)C(=O)N[C@@H](CC(C)C)C(=O)N[C@@H](CC(C)C)C(=O)N[C@@H](CC(C)C)C(=O)N[C@@H](CCCCNC(=O)/C(C)=C(/C)C(=O)O)C(=O)N[C@@H](CC(C)C)C(=O)N[C@@H](CC(C)C)C(=O)O [2,3-dimethylmaleamic KL3] (X1-K(X1)LLK(X1)LLLK(X1)LWLK(X1)LLK(X1)LLLK(X1)LL-OH; N-terminus and C-terminus assumed)
- Relative Light Units (luciferase expression) ([1]; pCIluc DNA/poly-L-lysine complex plus named additive, 48 h, average of two wells): 49535 Relative Light Units
- Relative Light Units relative to Succinylated poly-L-lysine ([1]; value in parentheses): 7.7
- Relative Light Units (luciferase expression) [2]: 20927 Relative Light Units
- rate constant for the conversion of maleamic acid to amine and anhydride [3]: 0.087 s⁻¹
- hemolysis ([4]; 30 minutes, 37 C): 4%
- hemolysis ([4]; post incubation at pH 5.4 30 seconds): 85%
